Series [1] can be described thus: Overall body weight in diabetic ZDF rats dosed daily for 4 days. Type of series: in vivo, Male ZDF-Leprfa/Crl (diabetic fa/fa) rats. Particulars: po daily 4 days. The method, then: (§1) Male ZDF-Leprfa/Crl (diabetic fa/fa) rats fed standard chow are allocated (n=10/group) based on body weight and fasting plasma glucose (FPG). […] An oral sucrose tolerance test (4 g/kg po) is performed on Day 4 and body weight is recorded daily.

Series [2] is described as follows: Diet-induced obese (DIO) rats: body weight, food intake, diet preference. Format: in vivo, rat. Particulars: 14 days of monotherapy. From the text: (§2) This anti-obesity effect is caused by appetite suppression and change in diet preference, presumably associated with increased dynorphin activity in dopaminergic forebrain regions involved in reward anticipation and habit learning.

Series [3] in a line: Acute nocturnal food intake in normal-weight rats. Type of series: in vivo, rat. Particulars: linagliptin 0.5 mg/kg sc BID, GLP-1 0.4 mg/kg sc BID.
Description: as §2

Series [4] can be described thus: Pharmacokinetics of BI 1356 after multiple oral doses once daily for 12 days in patients with type 2 diabetes. Particulars: for fe0-24 / feτ, ss: gMean; for feτ, ss: steady state (Day 12).
Series [5] deals with active GLP-1. In words: Plasma active GLP-1 5 min after sucrose load in diabetic ZDF rats. Format: in vivo, Male ZDF-Leprfa/Crl (diabetic fa/fa) rats. Particulars: 5 min after the sucrose load. The method, then: as §1
Series [6] is described as follows: Safety and tolerability in people with type 2 diabetes.
Series [7] is described as follows: Oral sucrose tolerance test (glucose control) on Day 4 in diabetic ZDF rats. Format: in vivo, Male ZDF-Leprfa/Crl (diabetic fa/fa) rats. To be noted: po daily 4 days, oral sucrose tolerance test Day 4. The method, then:
as §1

Where [8] appears, read: S1: linagliptin 1 mg/kg, voglibose 10 mg/kg.
Where [9] appears, read: S2: linagliptin 1 mg/kg, voglibose 1 mg/kg.
The mark [10] stands for this setting: S1: linagliptin 1 mg/kg, high-dose voglibose 10 mg/kg.
The mark [11] stands for this setting: S2: linagliptin 1 mg/kg, low-dose voglibose 1 mg/kg.

Where no end group is shown, it is not given here.

Regarding `CC#CCn1c(N2CCC[C@@H](N)C2)nc2c1c(=O)n(Cc1nc(C)c3ccccc3n1)c(=O)n2C` [BI 1356], the “change in overall weight compared with vehicle” value in series [1] (setting [8]) was “+0.7%”; in series [1] (setting [9]) it was −0.2%. Moreover, in series [2], the body weight result is “no effect”. Moreover, the nocturnal food intake entry in series [3] was “no effect”. In addition, the “mean accumulation ratio RA,AUC” value in series [4] (doses above 1 mg) is ≤ 1.4. Also, the fe0-24 was determined as 0.139% in series [4] (2.5 mg oral once daily), 0.453% in series [4] (5 mg oral once daily) and 0.919% in series [4] (10 mg oral once daily). Also, the “feτ, ss” value in series [4] (1 mg oral once daily) is recorded as 3.34%; in series [4] (2.5 mg oral once daily), 3.06%; in series [4] (5 mg oral once daily), 6.27%; in series [4] (10 mg oral once daily), 3.22%. In addition, the “form and route of excretion” value in series [4] (human, in vivo) is listed as “primarily excreted unchanged via the bile”. Moreover, the “excreted via the kidney” value in series [4] (therapeutic oral dose levels) is recorded as < 7 % of the administered oral dose. The “main route of excretion” value in series [4] (therapeutic oral dose levels) is “mainly excreted via the liver”. Besides, the “plasma active GLP-1 increase compared with vehicle” value in series [5] (S1 (voglibose 10 mg/kg)) came out at 160%; in series [5] (S2 (voglibose 1 mg/kg)), 144%. In addition, the safety and tolerability entry in series [6] is “placebo-like safety and tolerability”. Moreover, the results for the “glucose control compared with vehicle” value in series [7] (setting [10]) and in series [7] (setting [11]) were −10% and −17%, respectively.
On to “GLP-1: native GLP-1(7-36), short acting GLP-1 receptor agonist (HAEGTFTSDVSSYLEGQAAKEFIAWLVKGR; ends and bridges not checked; UniProt P01275 98-127, looked up, fragment) [reference compound]”, for which, in series [2], the body weight entry is given as “no effect”. Further, in series [3], the nocturnal food intake entry was “modest and short-lived suppression”.
Consider `OCC(CO)N[C@H]1C[C@](O)(CO)[C@@H](O)[C@H](O)[C@H]1O` [voglibose, reference compound], for which the entries for the “change in overall weight compared with vehicle” value in series [1] (setting [8]) and in series [1] (setting [9]) were −3.0% and −1.7%, respectively. In addition, the “glucose control compared with vehicle” value in series [7] (setting [10]) was −33%; in series [7] (setting [11]), −18%.

The values above are taken from patent US9713618B2, “Method for modifying food intake and regulating food preference with a DPP-4 inhibitor” (Boehringer Ingelheim International GmbH, priority 2012, dated 2017).
